In patent publication US9637516B2, “Betulinic acid proline derivatives as HIV inhibitors” (HETERO RESEARCH FOUNDATION, priority 2012, dated 2017):

Columns and labels:
[1] = Single dose oral pharmacokinetic study; assay type: in vivo, mice; settings: mouse, plasma
Protocol: The test item was administered through oral route to animals (rat/mice) at 30 mg/kg dose in a suitable vehicle at 10 ml/kg dose volume. Blood samples (˜50 uL at each time point) were collected from retro-orbital plexus using K3 EDTA as anticoagulant in eppendorf tubes at defined time intervals under light ether anesthesia. The samples were centrifuged at 3500×g to separate plasma and stored at −80° C. until analysis.
Sample analysis: Test samples were analyzed using LC-MS-MS after developing fit-for-purpose method for each of test compound.

HIV-1 strain 92HT599 = experiment: Antiviral activity: p24 estimation in MT2 cells infected with HIV-1 strain 92HT599; assay type: cell-based; settings: for inhibition at 0.1 µM: Human immunodeficiency virus 1, 100 nM; for inhibition at 0.1 µM / inhibition at 1 µM: HIV-1 92HT599, p24, ~96 hours; for inhibition at 1 µM: Human immunodeficiency virus 1, 1000 nM; for IC50: Human immunodeficiency virus 1, HIV-1 92HT599, p24
Protocol: MT2 cells were infected with HIV-1 strain 92HT599 (10 TCID 50/30000 cells). The infected cells were plated at the concentration of ˜30 000 cells per well in 96 well plate. Test compound was added to the micro plate in defined format with the final concentration of DMSO (vehicle) is not more than 1%. Incubation was carried out in CO2 incubator for ˜96 hours for viral infection. At the end of incubation period an aliquot from each well was taken for p24 estimation. The quantitation of p24 is an index for antiviral activity of the compound. Percent inhibition was calculated with reference to control values (vehicle controls). p-24 estimation was carried out using Advance biosciences kit as per the procedure detailed by supplier.

[2] = Mice oral PK @30 mg/kg (Table 3)
[3] = Mice oral PK @30 mg/kg (Table 4)

| Structure (SMILES) | AUC(0-t) [1, 2] | Cmax [1, 2] | Tmax [1, 2] | inhibition at 0.1 µM (HIV-1 strain 92HT599) | inhibition at 1 µM (HIV-1 strain 92HT599) | IC50 (HIV-1 strain 92HT599) | AUC(0-inf) [1, 3] | AUC(0-t) [1, 3] | Cmax [1, 3] | half-life [1, 3] |
| --- | --- | --- | --- | --- | --- | --- | --- | --- | --- | --- |
| C=C(C)[C@@H]1CC[C@]2(C(=O)N3CCC[C@@H]3c3nc(-c4cccnc4)no3)CC[C@]3(C)[C@H](CC[C@@H]4[C@@]5(C)CC[C@H](OC(=O)CC(C)(C)CC(=O)O)C(C)(C)[C@@H]5CC[C@]43C)[C@@H]12 [Compound 4, 3,3-dimethyl-5-oxo-5-((1R,3aS,5aR,5bR,7aR,9S,11aR,11bR,13aR,13bR)-5a,5b,8,8,11a-pentamethyl-1-(prop-1-en-2-yl)-3a-((R)-2-(3-(pyridin-3-yl)-1,2,4-oxadiazol-5-yl)pyrrolidine-1-carbonyl)icosahydro-1H-cyclopenta[a]chrysen-9-yloxy)pentanoic acid] | 36.9 µg·h/mL | 4830 ng/mL | 2.5 h | 84% | 96% | 8.64 nM |  |  |  |  |
| C=C(C)[C@@H]1CC[C@]2(C(=O)N3CCCC3c3ncc(-c4ccc(OC)cc4)[nH]3)CC[C@]3(C)[C@H](CC[C@@H]4[C@@]5(C)CC[C@H](OC(=O)[C@H]6C[C@@H](C(=O)O)C6(C)C)C(C)(C)[C@@H]5CC[C@]43C)[C@@H]12 (stereo partly shown) [Compound 15] |  |  |  | 98% | 97% |  | 446 µg·h/mL | 286 µg·h/mL | 11400 ng/mL | 30.9 h |
| C=C(C)[C@@H]1CC[C@]2(C(=O)N3CCC[C@H]3c3ncc(-c4ccccc4)[nH]3)CC[C@]3(C)[C@H](CC[C@@H]4[C@@]5(C)CC[C@H](OC(=O)[C@@H]6C[C@H](C(=O)O)C6(C)C)C(C)(C)[C@@H]5CC[C@]43C)[C@@H]12 [Compound 27, (1S,3R)-2,2-dimethyl-3-((((1R,3aS,5aR,5bR,7aR,9S,11aR,11bR,13aR,13bR)-5a,5b,8,8,11a-pentamethyl-3a-((S)-2-(5-phenyl-1H-imidazol-2-yl)pyrrolidine-1-carbonyl)-1-(prop-1-en-2-yl)icosahydro-1H-cyclopenta[a]chrysen-9-yl)oxy)carbonyl)cyclobutane-1-carboxylic acid] |  |  |  |  |  | 11 nM | 535 µg·h/mL | 231 µg·h/mL | 10100 ng/mL | 38.1 h |
| CC(C)(CC(=O)O[C@H]1CC[C@]2(C)[C@H]3CC[C@@H]4[C@H]5[C@H](C6(C)CC6)CC[C@]5(C(=O)N5CCC[C@H]5c5ncc(-c6cccnc6)[nH]5)CC[C@@]4(C)[C@]3(C)CC[C@H]2C1(C)C)C(=O)O [Compound 30, 2,2-dimethyl-4-oxo-4-(((1R,3aS,5aR,5bR,7aR,9S,11aR,11bR,13aR,13bR)-5a,5b,8,8,11a-pentamethyl-1-(1-methylcyclopropyl)-3a-((S)-2-(5-(pyridin-3-yl)-1H-imidazol-2-yl)pyrrolidine-1-carbonyl)icosahydro-1H-cyclopenta[a]chrysen-9-yl)oxy)butanoic acid] |  |  |  |  |  | 3.83 nM | 57.8 µg·h/mL | 54.6 µg·h/mL | 6400 ng/mL | 1.7 h |
| CC(C)(CC(=O)O)CC(=O)O[C@H]1CC[C@]2(C)[C@H]3CC[C@@H]4[C@H]5[C@H](C6(C)CC6)CC[C@]5(C(=O)N5CCCC5c5ncc(-c6cccnc6)[nH]5)CC[C@@]4(C)[C@]3(C)CC[C@H]2C1(C)C (stereo partly shown) [Compound 31] |  |  |  |  |  | 1.62 nM | 145 µg·h/mL | 136 µg·h/mL | 9300 ng/mL | 10.9 h |
| CC(C)(CC(=O)O[C@H]1CC[C@]2(C)[C@H]3CC[C@@H]4[C@H]5[C@H](C6(C)CC6)CC[C@]5(C(=O)N5CCC[C@H]5c5ncc(-c6ccc(F)cc6)[nH]5)CC[C@@]4(C)[C@]3(C)CC[C@H]2C1(C)C)C(=O)O [Compound 33, 4-(((1R,3aS,5aR,5bR,7aR,9S,11aR,11bR,13aR,13bR)-3a-((S)-2-(5-(4-fluorophenyl)-1H-imidazol-2-yl)pyrrolidine-1-carbonyl)-5a,5b,8,8,11a-pentamethyl-1-(1-methylcyclopropyl)icosahydro-1H-cyclopenta[a]chrysen-9-yl)oxy)-2,2-dimethyl-4-oxobutanoic acid] |  |  |  |  |  | 9.5 nM | 152 µg·h/mL | 88.7 µg·h/mL | 4400 ng/mL | 32.1 h |
| C=C(C)[C@@H]1CC[C@]2(C(=O)N3CCC[C@H]3c3ncc(-c4ccc(F)cc4)[nH]3)CC[C@]3(C)[C@H](CC[C@@H]4[C@@]5(C)CC[C@H](OC(=O)CC(C)(C)C(=O)O)C(C)(C)[C@@H]5CC[C@]43C)[C@@H]12 [Compound 34, 4-(((1R,3aS,5aR,5bR,7aR,9S,11aR,11bR,13aR,13bR)-3a-((S)-2-(5-(4-fluorophenyl)-1H-imidazol-2-yl)pyrrolidine-1-carbonyl)-5a,5b,8,8,11a-pentamethyl-1-(prop-1-en-2-yl)icosahydro-1H-cyclopenta[a]chrysen-9-yl)oxy)-2,2-dimethyl-4-oxobutanoic acid] |  |  |  |  |  | 17 nM | 263 µg·h/mL | 224 µg·h/mL | 13300 ng/mL | 16.1 h |
| C=C(C)[C@@H]1CC[C@]2(C(=O)N3CCC[C@H]3c3ncc(-c4ccc(F)cc4)[nH]3)CC[C@]3(C)[C@H](CC[C@@H]4[C@@]5(C)CC[C@H](OC(=O)C6CC(C(=O)O)C6(C)C)C(C)(C)[C@@H]5CC[C@]43C)[C@@H]12 (stereo partly drawn) [Compound 35, 3-((((1R,3aS,5aR,5bR,7aR,9S,11aR,11bR,13aR,13bR)-3a-((S)-2-(5-(4-fluorophenyl)-1H-imidazol-2-yl)pyrrolidine-1-carbonyl)-5a,5b,8,8,11a-pentamethyl-1-(prop-1-en-2-yl)icosahydro-1H-cyclopenta[a]chrysen-9-yl)oxy)carbonyl)-2,2-dimethylcyclobutane-1-carboxylic acid] |  |  |  |  |  | 74 nM | 655 µg·h/mL | 410 µg·h/mL | 16000 ng/mL | 34.2 h |
| CC(C)(CC(=O)O[C@H]1CC[C@]2(C)[C@H]3CC[C@@H]4[C@H]5[C@H](C6(C)CC6)CC[C@]5(C(=O)N5CCC[C@H]5c5ncc(-c6cccs6)[nH]5)CC[C@@]4(C)[C@]3(C)CC[C@H]2C1(C)C)C(=O)O [Compound 38] |  |  |  |  |  | 8.4 nM | 119 µg·h/mL | 110 µg·h/mL | 7000 ng/mL | 12.3 h |
| CC1(C)C(C(=O)O)CC1C(=O)O[C@H]1CC[C@]2(C)[C@H]3CC[C@@H]4[C@H]5[C@H](C6(C)CC6)CC[C@]5(C(=O)N5CCC[C@H]5c5ncc(-c6ccc(F)cc6)[nH]5)CC[C@@]4(C)[C@]3(C)CC[C@H]2C1(C)C (stereo partly drawn) [Compound 42, 3-((((1R,3aS,5aR,5bR,7aR,9S,11aR,11bR,13aR,13bR)-3a-((S)-2-(5-(4-fluorophenyl)-1H-imidazol-2-yl)pyrrolidine-1-carbonyl)-5a,5b,8,8,11a-pentamethyl-1-(1-methylcyclopropyl)icosahydro-1H-cyclopenta[a]chrysen-9-yl)oxy)carbonyl)-2,2-dimethylcyclobutane-1-carboxylic acid] |  |  |  |  |  | < 0.3 nM | 448 µg·h/mL | 254 µg·h/mL | 9300 ng/mL | 37.3 h |
